Reference: patent publication US20110117588A1, “METHOD OF PREDICTING DRUG-INDUCED PHOSPHOLIPIDOSIS” (KYUSHU UNIVERSITY, NATIONAL UNIVERSITY CORPORATION, priority 2007, published 2011)
Where two headings read alike, the source gives them in different places. Values belong to the compound of their own block, whether it stands above or below them.

Tests used:
NRK cells [1] = experiment: Intracellular and extracellular cathepsin D and cathepsin L levels by Western blotting; type: cell-based, rat
Procedure: In the case of cathepsin D (CTD), it is biosynthesized as an about 45 kDa proenzyme in rat cell (NRK), and processed in the acidic environment of lysosome to become an about 43 kDa mature enzyme.
Therefore, NRK cells were exposed to 0 (control), 5, 10, 20, 40 and 80 μM of AD for 24 hr, and lysosomal enzyme (CTD and cathepsin L (CTL)) levels in the cell and medium were measured by Western blotting using an antibody to these enzymes. To be specific, immunoprecipitates against anti-CTD antibody in cell lysate and medium or the cell lysate and medium for CTL were subjected to Western blot analysis using an anti-CTD antibody or anti-CTL antibody. […] Therefore, it was also shown that increased lysosomal enzyme in the medium was not caused by extracellular leakage due to cell damage and the like, but by selective extracellular secretion thereof.
(§1) On the other hand, CTL is biosynthesized as an about 39 kDa proenzyme, and converted to a 30 kDa single strand intermediate enzyme and a 23 kDa and 7 kDa double stranded mature enzyme during the process of intracellular transport. […] While CTD increased the enzyme activity in the medium in an AD dose-dependent manner, CTL caused no change. The reason therefor is considered to be the measurement of CTD activity at pH 4.0 where autocatalytic processing occurs, and the measurement of CTL activity at pH 6.0 where processing scarcely occurs.

NRK cells [2] = experiment: β-hexosaminidase activity in the medium after exposure of NRK cells
Excerpt: On the other hand, the activity of lysosomal enzyme can be measured using an activity measurement method by known per se for each enzyme. For example, lysosomal enzyme can be quantified by contacting a sample with a substrate compound for a lysosomal enzyme, which emits fluorescence or develops color by an enzyme reaction, and measuring the intensity of the resulting fluorescence or developed color by a fluorometer, spectrophotometer and the like. For example, as a measurement method of β-hexosaminidase, β-galactosidase, β-glucuronidase or β-mannosidase, the method described in The EMBO Journal, 12: 5219-5223 (1993) can be mentioned, as a measurement method of cathepsin D, the method described in J. Biochem, 125: 1137-1143 (1999) can be mentioned, and as a measurement method of cathepsin B/L, the method described in Methods in Enzymology, 80: 535-561 (1981) can be mentioned.
Furthermore, the activity of β-hexosaminidase in the medium was measured by a conventional method.

NRK cells [3] = experiment: Localization of MPR in NRK cells by confocal laser microscope with antibody; settings: 24 hr exposure, concentration at which localization altered
NRK cells [4] = test system: NRK cells
NRK cells [5] = experiment: Extracellular and intracellular lysosomal enzyme activity after exposure of NRK cells; type: cell-based, rat; settings: 24 hr
Procedure: NRK cells were exposed to 0 (solvent control), 5, 10, 20, 40 and 80 μM of AD for 24 hr, and lysosomal enzyme activities in the cell and medium were measured by a conventional method.
as §1

NRK cells [6] = experiment: Intracellular LC3 level by Western blotting and confocal microscopy; type: cell-based; settings: 20 μM; for LC3-II level: Western blot
Procedure: NRK cells were exposed to 20 μM of AD for 1, 3, 6, 12 and 24 hr, and the level of LC3 (microtuble-associated protein 1 light chain 3), which is an autophagy marker, in each cell was measured by Western blotting using an antibody to the protein. That is, cell lysate was subjected to Western blot analysis using an anti-LC3 antibody.
NRK cells were exposed to various PLIDs for 24 hr, and the intracellular level of LC3 was measured by western blotting.

NRK cells [7] = experiment: Swelling of late endosome/lysosome (LGP85 staining) and phospholipid accumulation (Nile Red) in NRK cells; type: cell-based, rat
Procedure: The cells were cultured in a DMEM medium supplemented with lipoprotein-deficient serum to 10% instead of normal fetal bovine serum, and morphological changes of lysosome and the presence or absence of phospholipid accumulation due to exposure to AD under the conditions free of extracellular supply of lipoprotein were examined.

Compound: Cl.N [NH4Cl, ammonium chloride]
- ratio of intracellular cathepsin D proenzyme (NRK cells [1]; NRK cells, 24 hr, Western blot of cell lysate immunoprecipitate): the ratio of intracellular proenzyme increased
- cathepsin D proenzyme in the medium (NRK cells [1]; NRK cells, 24 hr, Western blot of medium immunoprecipitate): the amount of proenzyme secreted in the medium increased
- β-hex activity increase (NRK cells [2]; NRK cells, 24 hr exposure, concentration at which β-hexosaminidase activity in medium increased): >1000 µM
- alteration of MPR localization (NRK cells [3]): >5 mM

- alteration of MPR localization (NRK cells [4]; rat, 24 h): 3 µg/mL
- β-hex activity increase (NRK cells [2]; rat, 24 h): 3 µg/mL
Compound: CCN(CC)CCO[C@H]1CC[C@@]2(C)C(=CC[C@@H]3[C@@H]2CC[C@]2(C)C(=O)CC[C@@H]32)C1 [U18666A]

Compound: CCCCc1oc2ccccc2c1C(=O)c1cc(I)c(OCCN(CC)CC)c(I)c1 [amiodarone]
- activity of α-glucosidase (endoplasmic reticulum enzyme) (NRK cells [5]; 5-80 μM): changed only at 80 μM
- intracellular lysosomal enzyme activity (NRK cells [5]; 5-80 μM): decreased
- lysosomal enzyme activity in the medium (NRK cells [5]; 5-80 μM): increased in an AD dose-dependent manner
- CTL activity in the medium (NRK cells [5]; 5-80 μM, measured at pH 6.0): changed only at 80 μM
- intracellular CTL activity (NRK cells [5]; 5-80 μM, measured at pH 6.0): decreased in a dose-dependent manner
- concentration showing cytotoxicity (NRK cells [5]): 80 µM
- CTL proenzyme in the medium (NRK cells [1]): only proenzyme increased in an AD dose-dependent manner
- cathepsin D proenzyme in the medium (NRK cells [1]): only proenzyme increased in an AD dose-dependent manner
- ratio of CTL mature enzyme in the cell (NRK cells [1]): decreased in an AD dose-dependent manner
- ratio of CTL proenzyme in the cell (NRK cells [1]): the ratio of proenzyme increased
- ratio of intracellular cathepsin D proenzyme (NRK cells [1]): increased in a dose-dependent manner
- granular staining with LC3 in the cell (NRK cells [6]; 1-24 hr, confocal laser microscope): increased in a time-dependent manner
- LC3-II level (NRK cells [6]; 12 and 24 hr): remarkably increased
- LC3-II level (NRK cells [6]; 3 hr): increased
- alteration of MPR localization (NRK cells [4]): altered
- alteration of MPR localization (NRK cells [4]; rat, 24 h): >10 µM
- accumulation of phospholipid (NRK cells [7]; NRK cells in DMEM with 10% lipoprotein-deficient serum): accumulation of phospholipid was found at the site
- late endosome/lysosome morphology (LGP85) (NRK cells [7]; NRK cells in DMEM with 10% lipoprotein-deficient serum, various concentrations, 24 hr): enlargement of late endosome/lysosome occurred in an AD dose-dependent manner
- accumulation of phospholipid (Nile Red staining) (NRK cells [7]; NRK cells, 24 hr exposure): accumulation of phospholipid was found
- late endosome/lysosome morphology (LGP85 antibody) (NRK cells [7]; NRK cells, 24 hr exposure): enlarged
- β-hex activity increase (NRK cells [2]; rat, 24 h): >10 µM

- alteration of MPR localization (NRK cells [4]): none
- β-hex activity increase (NRK cells [2]): none
Compound: CC1(C)S[C@@H]2[C@H](NC(=O)[C@H](N)c3ccc(O)cc3)C(=O)N2[C@H]1C(=O)O [amoxicillin]

- alteration of MPR localization (NRK cells [4]): none
- β-hex activity increase (NRK cells [2]): none
Compound: CC(=O)Oc1ccccc1C(=O)O [aspirin]

- β-hex activity increase (NRK cells [2]): none
Compound: C[C@H](CS)C(=O)N1CCC[C@H]1C(=O)O [captopril]

- alteration of MPR localization (NRK cells [4]; rat, 24 h): >5 µM
- β-hex activity increase (NRK cells [2]; rat, 24 h): >5 µM
Compound: CCN(CC)CCCC(C)Nc1ccnc2cc(Cl)ccc12 (stereo not drawn) [chloroquine]
- cathepsin D proenzyme in the medium (NRK cells [1]): the amount of proenzyme secreted in the medium increased
- ratio of intracellular cathepsin D proenzyme (NRK cells [1]): the ratio of intracellular proenzyme increased

- β-hex activity increase (NRK cells [2]; rat, 24 h): 20 µM
Compound: CN(C)CCCN1c2ccccc2Sc2ccc(Cl)cc21 [chlorpromazine]

- β-hex activity increase (NRK cells [2]; rat, 24 h): >400 µM
Compound: CC[C@H]1OC(=O)[C@H](C)[C@@H](O[C@H]2C[C@@](C)(OC)[C@@H](O)[C@H](C)O2)[C@H](C)[C@@H](O[C@@H]2O[C@H](C)C[C@H](N(C)C)[C@H]2O)[C@](C)(O)C[C@@H](C)C(=O)[C@H](C)[C@@H](O)[C@]1(C)O [erythromycin]

- alteration of MPR localization (NRK cells [4]; rat, 24 h): >20 µM
- β-hex activity increase (NRK cells [2]; rat, 24 h): >10 µM
Compound: O=C(CCCN1CCC(O)(c2ccc(Cl)cc2)CC1)c1ccc(F)cc1 [haloperidol]

- β-hex activity increase (NRK cells [2]; rat, 24 h): >40 µM
Compound: CN(C)CCCN1c2ccccc2CCc2ccccc21 [imipramine]

- alteration of MPR localization (NRK cells [4]; rat, 24 h): 20 µM
- β-hex activity increase (NRK cells [2]; rat, 24 h): >20 µM
Compound: CNCCCC12CCC(c3ccccc31)c1ccccc12 [maprotiline]

- alteration of MPR localization (NRK cells [4]; rat, 24 h): 2.5 µM
- β-hex activity increase (NRK cells [2]; rat, 24 h): 5 µM
Compound: C1CCC(C(CC2CCCCN2)C2CCCCC2)CC1 (stereo not drawn) [perhexiline]

- β-hex activity increase (NRK cells [2]; rat, 24 h): 100 µM
Compound: C=C[C@H]1C[N@@]2CC[C@H]1C[C@@H]2[C@@H](O)c1ccnc2ccc(OC)cc12 [quinidine]

- alteration of MPR localization (NRK cells [4]; rat, 24 h): 10 µM
- β-hex activity increase (NRK cells [2]; rat, 24 h): >10 µM
Compound: CC/C(=C(\c1ccccc1)c1ccc(OCCN(C)C)cc1)c1ccccc1 [tamoxifen]

- alteration of MPR localization (NRK cells [4]; rat, 24 h): 10 µM
- β-hex activity increase (NRK cells [2]; rat, 24 h): 10 µM
Compound: CSc1ccc2c(c1)N(CCC1CCCCN1C)c1ccccc1S2 (stereo not drawn) [thioridazine]

- alteration of MPR localization (NRK cells [4]; rat, 24 h): >5 µM
- β-hex activity increase (NRK cells [2]; rat, 24 h): >2.5 µM
Compound: CCN(CC)CCOc1ccc2c(c1)C(=O)c1cc(OCCN(CC)CC)ccc1-2 [tilorone]
- cathepsin D proenzyme in the medium (NRK cells [1]): the amount of proenzyme secreted in the medium increased
- ratio of intracellular cathepsin D proenzyme (NRK cells [1]): the ratio of intracellular proenzyme increased
